In US9326513B2, “Fungicidal compositions” (Syngenta Participations AG, priority 2011, dated 2016):

Assays:
Type in all cases: in vivo
Conditions in all cases: foliar, compared to untreated control leaf disks, read-out: disease control
[1] = test system: Pyrenophora teres; experiment: Pyrenophora teres / barley / leaf disc preventative (net blotch)
Source text: Pyrenophora teres/Barley/Leaf Disc Preventative (Net Blotch) Barley leaf segments cv. Hasso were placed on agar in a multiwell plate (24-well format) and sprayed with the formulated test compound diluted in water. The leaf segments were inoculated with a spore suspension of the fungus 2 days after application.

[2] = test system: Puccinia recondita f. sp. tritici; experiment: Puccinia recondita f. sp. tritici / wheat / leaf disc curative (brown rust)
Protocol: Puccinia recondita f. sp. tritici/Wheat/Leaf Disc Curative (Brown Rust) Wheat leaf segments cv. Kanzler are placed on agar in multiwell plates (24-well format). The leaf segments are inoculated with a spore suspension of the fungus. Plates were stored in darkness at 19° C. and 75% rh. The formulated test compound diluted in water was applied 1 day after inoculation.

[3] = test system: Blumeria graminis f. sp. tritici (Erysiphe graminis f. sp. tritici); experiment: Blumeria graminis f. sp. tritici / wheat / leaf disc preventative (powdery mildew on wheat)
Method in brief: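 Wheat leaf segments (cv. Kanzler) on agar were sprayed with formulated compound in water, inoculated with powdery mildew 1 day later, and kept at 20° C, 60% rh (24 h dark, then 12 h light/12 h dark). Percent disease control versus untreated scored 6-8 days after application; tested at 200 ppm.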

[4] = test system: Puccinia recondita f. sp. tritici; experiment: Puccinia recondita f. sp. tritici / wheat / leaf disc preventative (brown rust)
Source text: Puccinia recondita f. sp. tritici/Wheat/Leaf Disc Preventative (Brown Rust) Wheat leaf segments cv. Kanzler were placed on agar in multiwell plates (24-well format) and sprayed with the formulated test compound diluted in water. The leaf disks were inoculated with a spore suspension of the fungus 1 day after application.

Measured: pest or weed control at 200 ppm

CCN(C)/C=N/c1cc(Br)c(OCc2cccnc2)nc1C [Q.106]
≥ 50%: all assays above

CCN(C)/C=N/c1cc(Br)c(OC2Cc3ccc(Br)cc3C2)nc1C (centres unmarked) [Q.196]
≥ 50%: all assays above

CCN(C)/C=N/c1cc(Br)c(OCc2cccc(C(C)C)c2)nc1C [Q.169]
≥ 50%: [1] | [2] | [4]

CCN(C)/C=N/c1cc(Br)c(OCC2CCc3ccccc3C2)nc1C (centres unmarked) [Q.224]
≥ 50%: all assays above

CCN/C=N/c1cc(Br)c(OCCCC(C)C)nc1C [Q.004]
≥ 50%: all assays above

CCN(C)/C=N/c1cc(Br)c(OCc2ccc3ncccc3c2)nc1C [Q.209]
≥ 50%: all assays above

CCc1cc(/N=C/N(C)CC)c(C)nc1O[C@H]1CC[C@H](C(C)C)CC1 [Q.252]
≥ 50%: [1] | [4]

CCN(C)/C=N/c1cc(Br)c(OCc2cccc(C#Cc3ccccc3)c2)nc1C [Q.311]
≥ 50%: [1] | [2] | [4]

COc1cc(COc2ccc(/N=C/N(C)C(C)C)c(C)n2)cc(OC)c1 [Q.377]
≥ 50%: [1] | [2] | [4]

C=C(C)CC(CC(=C)C)Oc1nc(C)c(/N=C/N(C)CC)cc1Br [Q.232]
≥ 50%: [1] | [2] | [4]

CCN(C)/C=N/c1cc(Br)c(OC2Cc3cc(Br)c(OC)cc3C2)nc1C (centres unmarked) [Q.202]
≥ 50%: [1] | [3] | [4]

CCN(C)/C=N/c1cc(Br)c(OC(C)c2ccsc2)nc1C (centres unmarked) [Q.245]
≥ 50%: [1] | [3] | [4]

CCN(C)/C=N/c1cc(Br)c(OC(C)c2cccs2)nc1C (centres unmarked) [Q.237]
≥ 50%: [1] | [4]

C#Cc1cc(/N=C/N(C)CC)c(C)nc1O[C@H]1CC[C@H](C(C)C)CC1 [Q.253]
≥ 50%: [1] | [2] | [4]

CCN(C)/C=N/c1cc(Br)c(OC2CCNCC2)nc1C [Q.053]
≥ 50%: [1] | [3]

CCN(C)/C=N/c1cc(Br)c(OCc2snc(-c3ccc(F)cc3)c2Br)nc1C [Q.125]
≥ 50%: [1] | [3] | [4]

COc1ccccc1COc1ccc(/N=C/N(C)C(C)C)c(C)n1 [Q.366]
≥ 50%: [1] | [2] | [4]
